Source: patent US20060111418A1, “Blood-brain barrier disruption inhibitor” (Mitsubishi Pharma Corporation, priority 2003, published 2006)

Key:
[1] = tested on: experimental autoimmune encephalomyelitis (EAE) model rats; test: EAE model rats: limb neuroparalysis score (Paul's clinical score); assay type: in vivo, rat; conditions: edaravone 3 mg/kg/day i.p., dexamethasone 1 mg/kg/day i.p., n=3, FIG. 8
Method: (§1) Experimental autoimmune encephalomyelitis (EAE) model rats were prepared by known methods (Int. J. Immunopharmacol, 7: 497-503, 1995). First, an encephalitogenic emulsion consisting of equivalent amounts of Guinea pig spinal cord, sterile phosphate buffered saline (PBS), and Freund's incomplete adjuvant was prepared. Thereafter, 10 mg/ml Mycobacterium tuberculosis H37Ra (Difco Laboratories) was added to the emulsion. Rats (inbred male Lewis rats; body weight: 200 to 250 g) were inoculated with 0.1 ml each of the thus obtained emulsion by subcutaneous administration of the emulsion to both plantae of the hind legs thereof, so as to prepare EAE model rats.
Moreover, limb neuroparalysis scores were evaluated in a group of EAE model rats to which no agents were administered (control), a group of EAE model rats to which dexamethasone was administered (1 mg/kg/day, intraperitoneal administration), and a group of EAE model rats to which edaravone was administered (3 mg/kg/day, intraperitoneal administration). The limb neuroparalysis scores were evaluated in accordance with the following standards.

[2] = reported in Kawai et al. 1997; Wu et al. 2000; cited from earlier work
[3] = tested on: experimental autoimmune encephalomyelitis (EAE) model rats; test: EAE model rats: cytokines in spinal fluid, protein ratio and blood-brain barrier permeability; assay type: in vivo, rat; conditions: 3 mg/kg/day i.p., at 10, 11 and 12 days after sensitization, n=3, FIG. 7
Method: as §1
With regard to the control rats and EAE model rats, the concentrations of TNF-α and IL-1β in blood plasma and in spinal fluid, the protein ratio in spinal fluid/blood plasma, and blood-brain barrier permeability (the ratio of the concentration (Kp, app) of sodium fluorescein in brain/blood plasma, 20 minutes after administration by intravenous injection) were measured, in both a case where edaravone was administered or a case where edaravone was not administered. The terms “Kp” and “app” indicate apparent distribution ratios, which are values obtained by dividing the concentration of fluorescein in brain tissues by the concentration thereof in blood plasma after intravenous injection of the fluorescein (wherein the values are multiplied by 100, so as to be expressed on a percentage basis). It is to be noted that the specific gravity of brain tissues is expressed as 1 (because the unit of concentration is expressed as/g tissue weight). The amount of edaravone administered was set at 3 mg/kg/day (intraperitoneal administration). From 10 days after sensitization (administration of an antigen solution), edaravone was administered at intervals of 24 hours for 3 days (that is, 3 administrations at 10 days, 11 days, and 12 days after sensitization).

[4] = tested on: blood-brain barrier coculture model (brain capillary endothelial cells and astrocytes); test: Blood-brain barrier coculture model, permeability measured as TEER; assay type: cell-based, bovine brain capillary endothelial cells; rat astrocytes; conditions: TNF-α (50 ng/ml) and/or IL-1β (5 ng/ml) added to the BBB coculture model; n=3; FIG. 2
Method: A blood-brain barrier coculture model was prepared by a method that had previously been reported (Eur. J. Pharm. Sci., 12: 215-222, 2001). Specifically, brain microcapillary endothelial cells and rat astrocytes were isolated, and the two types of cells were cultured on both sides of a Transwell™ filter, so as to prepare a coculture model. The preparation method of such a coculture model will be described below.
A brain capillary was isolated from a bovine brain. The meninx and white matter were eliminated therefrom, and the gray matter was recovered in DMEM (DMEM+S) to which 10% fetal calf serum had been added. Vascular fragments were prepared by homogenizing by hand, using a Wheaton homogenizer, and they were then captured on a 150-μm nylon mesh. The blood vessel was digested with collagenase, trypsin and DNAseI, in DMEM+S at 37° C. for 1 hour. […]
The brain capillary was inoculated into a plastic flask used for tissue culture, which had been covered with type IV collagen and fibronectin, and was allowed to adhere to a medium for 4 hours. Thereafter, the medium was exchanged with a growth medium (DMEM+S to which a 50% (v/v) astrocyte-conditioned medium and 125 μg/ml heparin had been added), and growing cells (large quantities of brain capillary endothelial cells and only small quantities of peritheliums) were cultured at 37° C. in 10% CO2. […]

CC1=NN(c2ccccc2)C(=O)C1 [edaravone, 3-methyl-1-phenyl-2-pyrazolin-5-one]
limb neuroparalysis scores [1]: improved
reactivity to active oxygen [2]: high reactivity
increased concentration of IL-1β in spinal fluid [3]: inhibited
increased concentration of TNF-α in spinal fluid [3]: inhibited
increased protein ratio in spinal fluid/blood plasma [3]: inhibited

IL-1β: interleukin-1 beta, inflammatory cytokine
TEER (transcellular endothelial electrical resistance) [4]: significantly reduced

TNF-α
TEER (transcellular endothelial electrical resistance) [4]: significantly reduced
